This note sets out measurements from patent US20210154190A1, “SHP2 INHIBITOR COMPOSITIONS AND METHODS FOR TREATING CANCER” (Revolution Medicines, Inc., priority 2018, published 2021).

Molecules are shown by their SMILES. Substitutions are numbered along the chain they refer to. Values joined by “and” are separate entries in the source; they are usually repeats but may differ in a detail not shown here. Equal entries are not always repeated. Where two headings read alike, the source gives them in different places.

What all share (assay type): biochemical
One experiment deals with T1, human SHP2-FL wild type (Homo sapiens, UniProt Q06124).
T1 sequence (Q06124 1-593): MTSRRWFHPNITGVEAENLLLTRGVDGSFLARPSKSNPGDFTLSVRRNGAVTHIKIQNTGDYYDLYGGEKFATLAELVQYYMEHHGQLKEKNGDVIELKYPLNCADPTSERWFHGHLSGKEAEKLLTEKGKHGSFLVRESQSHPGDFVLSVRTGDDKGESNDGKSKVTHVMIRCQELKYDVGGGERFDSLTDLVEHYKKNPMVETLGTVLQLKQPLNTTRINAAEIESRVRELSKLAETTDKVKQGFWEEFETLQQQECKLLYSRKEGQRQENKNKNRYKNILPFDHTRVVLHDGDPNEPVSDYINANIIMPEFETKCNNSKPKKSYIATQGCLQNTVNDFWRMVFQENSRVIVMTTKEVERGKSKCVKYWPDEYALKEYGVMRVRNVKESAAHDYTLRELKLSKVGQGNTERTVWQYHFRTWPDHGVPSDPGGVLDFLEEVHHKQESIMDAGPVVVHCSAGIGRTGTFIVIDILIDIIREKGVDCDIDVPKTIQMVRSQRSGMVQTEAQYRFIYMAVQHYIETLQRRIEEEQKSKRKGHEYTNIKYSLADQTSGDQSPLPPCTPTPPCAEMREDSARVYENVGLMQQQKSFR
The experiment in a line: SHP2 allosteric inhibition assay (DiFMUP), wild type. The procedure:
(§1) Full-length SHP2 is allosterically activated through binding of bis-tyrosyl-phorphorylated peptides to its Src Homology 2 (SH2) domains. The latter activation step leads to the release of the auto-inhibitory interface of SHP2, which in turn renders the SHP2 protein tyrosine phosphatase (PTP) active and available for substrate recognition and reaction catalysis. The catalytic activity of SHP2 was monitored using the surrogate substrate DiFMUP in a prompt fluorescence assay format.
(§2) […] […] 50 μl stop solution (0.1 mM sodium pervanadate) was added to each well, the plate was shaken briefly to mix, and read in endpoint mode on a SpectraMax M5 plate reader (Molecular Devices) using excitation and emission wavelengths of 340 nm and 450 nm. Data was imported into GraphPad Prism. Plots of fluorescence intensity vs. log Molar [compound] were created and modeled with a 3-parameter sigmoidal concentration response equation in order to estimate IC50.
(§3) Reactions were then allowed to proceed for 30 minutes and stopped by the addition of a phosphatase inhibitor, sodium pervanadate. De-phosphorylation of DiFMUP results in production of a fluorescent product. Product fluorescence was determined and plotted as a function of compound concentration in order to determine the IC50 for each compound on each mutant using a four parameter sigmoidal dose response function in Prism (GraphPad).
(§4) NsCs mimics the role of the cytosolic domain of a protein tyrosine kinase in this model system.

Another experiment has as its target T2, human SHP2-FL L262R (Homo sapiens, UniProt Q06124, L262R).
T2 sequence (Q06124 1-593 L262R): T1 sequence (Q06124 1-593) with L262R
The experiment in a line: SHP2 allosteric inhibition assay (DiFMUP), L262R. The method, then: as §1, §2, §3, §4

The next experiment has as its target T3, human SHP2-FL D61G (Homo sapiens, UniProt Q06124, D61G).
T3 sequence (Q06124 1-593 D61G): T1 sequence (Q06124 1-593) with D61G
Kind of experiment: SHP2 allosteric inhibition assay (DiFMUP), D61G. To be noted: for IC50: SHP2 D61G. The method, then: as §1, §2, §3, §4

As for `Nc1nc(N2CCC3(CCC[C@H]3N)CC2)cnc1Sc1ccnc(Cl)c1Cl` [Compound 1], the IC50 on human SHP2-FL wild type (Wild-type SHP2, 0.5 μM NsCs peptide (Activated), read-out: IC50) is 2.62 nM and 2.69 nM and 2.12 nM and 2.37 nM; on human SHP2-FL wild type (Wild-type SHP2, 0.5 μM NsCs peptide (Activated), read-out: pIC50 (converted)), 2.63 nM and 2.69 nM and 2.14 nM and 2.34 nM; at human SHP2-FL wild type (Wild-type SHP2, No Peptide Control (Non-Activated), read-out: IC50), 2.01 nM and 2.43 nM and 1.36 nM and 2.24 nM; on human SHP2-FL wild type (Wild-type SHP2, No Peptide Control (Non-Activated), read-out: pIC50 (converted)), 2 nM and 2.45 nM and 1.35 nM and 2.24 nM; at human SHP2-FL L262R (IC50 (nM), SHP2 L262R 0.5 μM NsCs peptide (Activated), human SHP2-FL L262R, 0.5 μM NsCs peptide (activated)), 79.4 nM and 62.2 nM and 69.2 nM and 74.6 nM; at human SHP2-FL L262R (human SHP2-FL L262R alone, no peptide (non-activated), read-out: IC50 (nM), SHP2 L262R No Peptide Control (Non-Activated)) it was 2.83 nM and 3.37 nM and 2.75 nM and 3.43 nM. The IC50 is 2.82 nM and 3.39 nM and 2.75 nM at human SHP2-FL L262R (human SHP2-FL L262R alone, no peptide (non-activated), read-out: pIC50, SHP2 L262R No Peptide Control (Non-Activated) (converted)); 79.4 nM and 61.7 nM and 69.2 nM and 74.1 nM against human SHP2-FL L262R (pIC50, SHP2 L262R 0.5 μM NsCs peptide (Activated), human SHP2-FL L262R, 0.5 μM NsCs peptide (activated)); 185 nM and 219 nM and 198 nM and 191 nM at human SHP2-FL D61G (0.5 μM NsCs peptide (Activated), read-out: IC50); 186 nM and 219 nM and 200 nM and 191 nM at human SHP2-FL D61G (0.5 μM NsCs peptide (Activated), read-out: pIC50 (converted)); 1.85 nM and 2.45 nM and 1.6 nM and 1.81 nM on human SHP2-FL D61G (No Peptide Control (Non-Activated), read-out: IC50); 1.86 nM and 2.45 nM and 1.58 nM and 1.82 nM at human SHP2-FL D61G (No Peptide Control (Non-Activated), read-out: pIC50 (converted)).

For `Cc1nc(N2CCC3(CC2)CO[C@@H](C)[C@H]3N)c(CO)nc1-c1cccc(Cl)c1Cl` [Compound B], the Biochemical sensitivity result at human SHP2-FL wild type (Variant WT), on human SHP2-FL L262R (Variant L262R) and at human SHP2-FL D61G (Variant D61G) was “yes (Sensitive if IC50 < 2000 nM)” in each case.
